Test results taken from PMC7870626, “Neurotoxicity and underlying cellular changes of 21 mitochondrial respiratory chain inhibitors” (Archives of Toxicology, 2021).

Legend:
[1] = system: cII; set-up: method as in van der Stel et al. 2020; conditions: read-out: Concentration at which 50% inhibition was observed; HepG2 cells ref van der Stel et al. 2020; cited from earlier work
[2] = system: cI; set-up: method as in van der Stel et al. 2020; conditions: liver and kidney cells ref van der Stel et al. 2020; read-out: IC50 for inhibition of cI; cited from earlier work
[3] = molecular target: T1, cIII (Homo sapiens, UniProt P00156); test: Respiratory chain complex activity in permeabilized LUHMES cells: cIII; assay type: cell-based
T1 construct: endogenous in cells; host or cells: LUHMES cells, digitonin-permeabilized
Description: To investigate individual respiratory chain complexes, a method developed earlier and described extensively was used (Delp et al. [2019]). In brief, LUHMES cells were seeded at a density of 205,000 cells/cm^2 in PM into Agilent Seahorse XFe24-well plates. […] To reduce data variability, internal normalization of the OCR of each well was done relative to its value after equilibration.

[4] = system: HepG2 cells; set-up: method as in van der Stel et al. 2020; conditions: ref van der Stel et al. 2020; cited from earlier work
[5] = system: LUHMES cells; test: NeuroGlycoTest (metabolic glycoengineering, KE3 assay); assay type: cell-based, human; conditions: d6 LUHMES, 6 h
Description: The NeuroGlycoTest was performed as previously described (Kranaster et al. [2020]). In brief, d6 LUHMES cells were co-treated for 6 h with the respiratory chain inhibitors together with 10 µM azide-tagged mannosamine precursor sugar (Ac4ManNAz), synthesized according to published procedures (Saxon et al. [2002]). After PBS-washing, a dibenzylcyclooctyne-PEG4-biotin (DBCO-biotin) [100 μM] (Jena Bioscience, Jena, Germany) solution was added for 20 min at 37 °C to label the incorporated azide-tagged sialic acids (= SiaAz).
For detection of MGE-sialoproteins, cells in 6-well plates were lyzed in Laemmli buffer and boiled for 5 min at 95 °C. […] Relative band intensity was quantified using a self-developed image evaluation software. […] At least two blots from independent experiments were quantified.
For detection of neurite MGE, cells in 8-well µ-slides were further incubated with a mixture of streptavidin-Alexa Fluor 488 [8 μg/ml] […] The processed images were analyzed using the SUIKER software (Karreman et al. [2019]) that simultaneously, from the same image, detected and quantified viability (based on the Hoechst staining), neurite area (based on the Calcein staining) and neurite MGE sialic acids (based on the streptavidin-Alexa Fluor 488 label). […]

For `Cc1ccccc1C(=O)Nc1cccc(OC(C)C)c1` [Mepronil], the IC50 [1] is listed as over 100 µM.

In the case of `COc1cc(CNC(=O)CCCC/C=C/C(C)C)ccc1O` [Capsaicin], the IC50 [2] is listed as over 200 µM.

In the case of `Cc1ccc(-c2c(Cl)nc(C#N)n2S(=O)(=O)N(C)C)cc1` [Cyazofamid], the “Inhibition of cIII activity (in words)” value ([3]; cIII electron donor) is listed as “not active at all”, the Uncoupling action ([3]; neuronal mitochondria, 50 µM) is listed as “uncoupling action” and the “Mode of action found in HepG2 cells” value [4] is listed as “uncoupler”.

In the case of `CCCCCC[C@H]1C(=O)O[C@H](C)[C@H](NC(=O)c2cccc(NC=O)c2O)C(=O)O[C@@H](C)[C@@H]1OC(=O)CC(C)C` [Antimycin A], the “Reduction of neurite area in the NeuroGlycoTest” value ([5]; highest non-cytotoxic concentration) is reported as “more than 25%” and the “Neurite MGE signal / proteostasis disturbance (in words)” value ([5]; highest non-cytotoxic concentration (antimycin A 50 µM)) is reported as “strong decrease”.
